Measured values: BindingDB's records for doi:10.7270/Q2TX3CTT (Broad Institute, 2010)
Structures can show the parent of a compound that is named as a salt.

Molecular target: Glycogen synthase kinase-3 beta (Homo sapiens, UniProt P49841)
Assay: GSK3beta kinase inhibitor potency, dose response, biochemical, luminescence, cell-free homogeneous, retest (AID 434954)

Glycogen synthase kinase-3 beta, sequence (P49841 whole entry): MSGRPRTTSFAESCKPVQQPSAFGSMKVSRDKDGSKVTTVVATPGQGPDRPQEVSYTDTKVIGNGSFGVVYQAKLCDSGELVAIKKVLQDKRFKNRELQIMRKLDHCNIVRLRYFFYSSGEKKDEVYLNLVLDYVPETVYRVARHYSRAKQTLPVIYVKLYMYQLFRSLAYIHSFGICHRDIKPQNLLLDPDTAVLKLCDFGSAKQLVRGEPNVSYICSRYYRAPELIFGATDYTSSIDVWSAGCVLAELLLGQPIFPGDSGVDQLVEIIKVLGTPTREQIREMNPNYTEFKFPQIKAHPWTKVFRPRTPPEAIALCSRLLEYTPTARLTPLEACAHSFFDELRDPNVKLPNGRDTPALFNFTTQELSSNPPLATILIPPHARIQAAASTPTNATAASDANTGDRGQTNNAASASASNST

EC50 [µM]	Structure (SMILES)
> 300	CCOC(=O)c1c(C)[nH]c(C)c1C(=O)CN1C(=O)NC(CC(C)C)C1=O (stereo not drawn) [ethyl 2,5-dimethyl-4-[2-[4-(2-methylpropyl)-2,5-dioxoimidazolidin-1-yl]acetyl]-1H-pyrrole-3-carboxylate]
> 300	CCOC(=O)c1c(C)[nH]c(C)c1S(=O)(=O)NCC(=O)Nc1ccccn1 [ethyl 2,5-dimethyl-4-[[2-oxo-2-(pyridin-2-ylamino)ethyl]sulfamoyl]-1H-pyrrole-3-carboxylate]
> 300	CCOC(=O)CNC(=O)CSc1ccc2nnc(-c3cccnc3)n2n1 [ethyl 2-[[2-[(3-pyridin-3-yl-[1,2,4]triazolo[4,3-b]pyridazin-6-yl)sulfanyl]acetyl]amino]acetate]
> 300	CCOC(=O)c1ccc(NC(=O)CN(C)S(=O)(=O)c2ccc(Br)s2)cc1 [ethyl 4-[2-[(5-bromanylthiophen-2-yl)sulfonyl-methyl-amino]ethanoylamino]benzoate]
> 300	CCOC(=O)c1c(C)[nH]c(C)c1S(=O)(=O)N(C)CC(=O)Nc1cccc(F)c1 [ethyl 4-[[2-(3-fluoroanilino)-2-oxoethyl]-methylsulfamoyl]-2,5-dimethyl-1H-pyrrole-3-carboxylate]
> 300	CCOC(=O)CC(=O)CSc1ccc2nnc(-c3cccc(F)c3)n2n1 [ethyl 4-[[3-(3-fluorophenyl)-[1,2,4]triazolo[4,3-b]pyridazin-6-yl]sulfanyl]-3-oxobutanoate]
83.8	CCOC(=O)CC(=O)CSc1ccc2nnc(-c3ccc(F)cc3)n2n1 [ethyl 4-{[3-(4-fluorophenyl)[1,2,4]triazolo[4,3-b]pyridazin-6-yl]thio}-3-oxobutanoate]
> 300	CCOC(=O)c1c(C)oc2c(CC(=O)c3ccccc3)c(Cl)c(O)c(O)c12 [ethyl 6-chloro-4,5-dihydroxy-2-methyl-7-phenacyl-1-benzofuran-3-carboxylate]
108	CCOC(=O)c1cnc2ccc(Cl)cc2c1Nc1ccc(S(=O)(=O)Nc2ncccn2)cc1 [ethyl 6-chloro-4-[4-(pyrimidin-2-ylsulfamoyl)anilino]quinoline-3-carboxylate]
24	CCOC(=O)C1C(C)=Nc2ncnn2C1c1cc(Br)ccc1F (stereo not drawn) [ethyl 7-(5-bromo-2-fluorophenyl)-5-methyl-1,7-dihydro-[1,2,4]triazolo[1,5-a]pyrimidine-6-carboxylate]
> 300	CCOC(=O)c1cnc2c(C)cccc2c1Nc1ccc(N2CCOCC2)cc1 [ethyl 8-methyl-4-[(4-morpholin-4-ylphenyl)amino]quinoline-3-carboxylate]
> 300	CCOC(=O)c1ccc(/N=c2\sc(C(=O)OC)cc(=O)n2Cc2ccco2)cc1 [methyl 2-(4-ethoxycarbonylphenyl)imino-3-(furan-2-ylmethyl)-4-oxidanylidene-1,3-thiazine-6-carboxylate]
> 300	COC(=O)C(C)Oc1cc(OC(C)C(=O)OC)c2c(-c3ccccc3)cc(=O)oc2c1 (stereo not drawn) [methyl 2-[5-(1-methoxy-1-oxopropan-2-yl)oxy-2-oxo-4-phenylchromen-7-yl]oxypropanoate]

Second part, the molecule before the results:

Structure (SMILES)	EC50 [µM]
CCOC(=O)c1nnn(-c2nonc2N)c1-c1ccc(C)cc1 [ethyl 1-(4-amino-1,2,5-oxadiazol-3-yl)-5-(4-methylphenyl)triazole-4-carboxylate]	51
CCOC(=O)c1nnn(-c2nonc2N)c1CN(CC)CC [ethyl 1-(4-amino-1,2,5-oxadiazol-3-yl)-5-(diethylaminomethyl)triazole-4-carboxylate]	> 300
CCOC(=O)c1nnn(-c2nonc2N)c1COc1ccccc1 [ethyl 1-(4-amino-1,2,5-oxadiazol-3-yl)-5-(phenoxymethyl)triazole-4-carboxylate]	23.8
CCOC(=O)c1nnn(-c2nonc2N)c1CSc1ccccc1 [ethyl 1-(4-amino-1,2,5-oxadiazol-3-yl)-5-[(phenylthio)methyl]-1H-1,2,3-triazole-4-carboxylate]	14.7
CCOC(=O)C1CCN(CC(O)COC(CC)c2ccccc2)CC1 (stereo not drawn) [ethyl 1-[2-oxidanyl-3-(1-phenylpropoxy)propyl]piperidine-4-carboxylate;hydrochloride]	> 300
CCOC(=O)CSc1ccc2nnc(-c3ccccc3)n2n1 [ethyl 2-[(3-phenyl-[1,2,4]triazolo[4,3-b]pyridazin-6-yl)sulfanyl]acetate]	44.6
CCOC(=O)CSc1ccc2nnc(-c3cccs3)n2n1 [ethyl 2-[(3-thiophen-2-yl-[1,2,4]triazolo[4,3-b]pyridazin-6-yl)sulfanyl]ethanoate]	4.1
CCCCCCNC(=O)C(C(=O)OCC)C1CCCCC1 (stereo not drawn) [ethyl 2-cyclohexyl-3-(hexylamino)-3-oxidanylidene-propanoate]	> 300
CCOC(=O)CCNCC1COc2ccccc2O1 (stereo not drawn) [ethyl 3-(2,3-dihydro-1,4-benzodioxin-3-ylmethylamino)propanoate;hydrochloride]	> 300
CCOC(=O)CC(=O)CSc1ccc2nnc(-c3ccccc3)n2n1 [ethyl 3-oxo-4-[(3-phenyl[1,2,4]triazolo[4,3-b]pyridazin-6-yl)thio]butanoate]	> 300
CCOC(=O)N1CCN(S(=O)(=O)c2cc(Br)cc3c2N(C(=O)C2CC2)CC3)CC1 [ethyl 4-[(5-bromanyl-1-cyclopropylcarbonyl-2,3-dihydroindol-7-yl)sulfonyl]piperazine-1-carboxylate]	> 300
CCOC(=O)C1C(C)=Nc2ncnn2C1c1ccccc1F (stereo not drawn) [ethyl 7-(2-fluorophenyl)-5-methyl-4,7-dihydro[1,2,4]triazolo[1,5-a]pyrimidine-6-carboxylate]	> 300
CCCC1=Nc2ncnn2C(c2ccco2)C1C(=O)OCC (stereo not drawn) [ethyl 7-(furan-2-yl)-5-propyl-1,7-dihydro-[1,2,4]triazolo[1,5-a]pyrimidine-6-carboxylate]	17.4
CCOC(=O)C1C(C)=Nc2ncnn2C1c1ccc(N(C)C)cc1 (stereo not drawn) [ethyl 7-[4-(dimethylamino)phenyl]-5-methyl-1,7-dihydro-[1,2,4]triazolo[1,5-a]pyrimidine-6-carboxylate]	> 300
CCOC(=O)CSc1ccc2nnc(CCNS(=O)(=O)c3ccccc3)n2n1 [ethyl [(3-{2-[(phenylsulfonyl)amino]ethyl}[1,2,4]triazolo[4,3-b]pyridazin-6-yl)thio]acetate]	> 300
COC(=O)c1nnn(-c2nonc2N)c1CSc1nc2ccccc2s1 [methyl 1-(4-amino-1,2,5-oxadiazol-3-yl)-5-(1,3-benzothiazol-2-ylsulfanylmethyl)triazole-4-carboxylate]	> 300
COC(=O)c1nnn(-c2nonc2N)c1CSc1nc2ccccc2o1 [methyl 1-(4-amino-1,2,5-oxadiazol-3-yl)-5-[(1,3-benzoxazol-2-ylthio)methyl]-1H-1,2,3-triazole-4-carboxylate]	127
COC(=O)c1nnn(-c2nonc2N)c1COc1ccc(C=O)cc1OC [methyl 1-(4-azanyl-1,2,5-oxadiazol-3-yl)-5-[(4-methanoyl-2-methoxy-phenoxy)methyl]-1,2,3-triazole-4-carboxylate]	25.9
COC(=O)c1ccccc1Nc1ccnc(Cl)n1 [methyl 2-[(2-chloropyrimidin-4-yl)amino]benzoate]	> 300
COC(=O)CSc1nnc(-c2ccncc2)o1 [methyl 2-[(5-pyridin-4-yl-1,3,4-oxadiazol-2-yl)sulfanyl]ethanoate]	> 300
